Experiment [1] has as its target T1, TSPO (Rattus norvegicus, UniProt P16257). In words: In vitro autoradiography on rat brain slices. Type of experiment: binding. Particulars: sham rat brain slices; PK11195 14.17 μmol/L, [19F]F-TFQC 12.91 μmol/L; 14.5 nmol/L [18F]F-TFQC; P < 0.001.
Experiment [2] deals with TSPO. To be noted: read-out: human U87MG Ki; cited from earlier work.
Experiment [3] addresses T1, TSPO. In words: Micro PET/CT imaging in KA-induced epileptic rats. Type of experiment: in vivo, SD rats. To be noted: 2 mg/kg i.v. 10 min prior to [18F]F-TFQC, P < 0.05.

“Also recorded” adds a separate entry of the source.

T1 sequence (P16257 whole entry): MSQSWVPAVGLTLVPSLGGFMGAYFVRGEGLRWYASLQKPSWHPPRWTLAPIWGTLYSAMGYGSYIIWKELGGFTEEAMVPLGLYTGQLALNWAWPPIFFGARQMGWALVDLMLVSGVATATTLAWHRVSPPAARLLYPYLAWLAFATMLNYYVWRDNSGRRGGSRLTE

Take `CCC(C)N(C)C(=O)c1cc2ccccc2c(-c2ccccc2Cl)n1` (stereo not shown) [PK11195, reference compound]: the “blocking of [18F]F-TFQC autoradiography signals” value in experiment [1] is listed as “disappeared; also recorded: blocked”.

By Ki is commonly meant the equilibrium dissociation constant of an inhibitor or competing ligand from its target. Take `CC[C@@H](C)N(C)C(=O)c1nc(-c2cccc(C(F)(F)F)c2)c2ccccc2n1` [[^19F]F-TFQC, N-((2R)-but-2-yl)-N-methyl-4-(3-(trifluoromethyl)phenyl)quinazoline-2-carboxamide]: in experiment [2], the inhibitory constant (Ki) was 1.19 nM. The “blocking of [18F]F-TFQC radioactivity in the right hippocampus” value in experiment [3] is given as “blocked”. For the same compound, the “blocking of [18F]F-TFQC autoradiography signals” value in experiment [1] is on record as “disappeared; also recorded: blocked”.
